Data taken from ChEMBL document CHEMBL1126225, “Potential mechanism-based inhibitors of proteolytic enzymes” (Bioorg Med Chem Lett, 1992).

What was measured:
[1] = molecular target: T1, Neutrophil elastase (Homo sapiens) (UniProt P08246); test: Compound was tested for the inhibition of human leukocyte elastase (HLE) by ratio of Kobs to that of KI
T1 sequence (whole entry): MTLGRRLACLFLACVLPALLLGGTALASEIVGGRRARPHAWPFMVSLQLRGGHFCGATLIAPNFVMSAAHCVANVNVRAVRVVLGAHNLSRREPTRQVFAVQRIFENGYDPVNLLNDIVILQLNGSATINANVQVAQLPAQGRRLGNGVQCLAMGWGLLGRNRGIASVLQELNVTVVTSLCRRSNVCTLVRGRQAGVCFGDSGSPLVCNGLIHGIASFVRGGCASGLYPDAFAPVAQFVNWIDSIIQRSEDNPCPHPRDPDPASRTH

[2] = molecular target: T1, Neutrophil elastase (Homo sapiens); test: Compound was tested for the inhibition of human leukocyte elastase (HLE) by ratio of Kobs to that of KI; Insoluble
Neutrophil elastase = molecular target: T2, Neutrophil elastase (Homo sapiens, UniProt P08246); test: Compound was tested for the inhibition of human leukocyte elastase (HLE)
T2 sequence (P08246 whole entry): T1 sequence (whole entry)

Q: With `CC(C)Cc1ccc(C(C)C(=O)CN2C(=O)CC(Cc3ccccc3)C2=O)cc1` (stereo not drawn) as the compound, how does the K obs / 1 [1] read?
A: 45 M⁻¹ s⁻¹

Q: With `CC(C)Cc1ccc(C(C)C(=O)CN2C(=O)CC(CC(C)C)C2=O)cc1` (stereo not drawn) as the compound, how does the K obs / 1 [1] read?
A: 16 M⁻¹ s⁻¹

Q: Which K obs / 1 [1] does the source give for `CC(C)C[C@H](NC(=O)OCc1ccccc1)C(=O)CN1C(=O)c2ccccc2S1(=O)=O` here?
A: 420 M⁻¹ s⁻¹

Q: Which K obs / 1 [1] does the source give for `O=C(CN1C(=O)c2ccccc2S1(=O)=O)OCc1ccccc1` here?
A: 4 M⁻¹ s⁻¹

Q: `CC(C)C[C@H](NC(=O)OCc1ccccc1)C(=O)CN1C(=O)CC(Cc2ccccc2)C1=O` (stereo partly drawn) was tested. Which K obs / 1 [1] did it give?
A: 3 M⁻¹ s⁻¹

Q: How did the K obs / 1 [1] turn out when `CC(C)Cc1ccc(C(C)C(=O)CN2C(=O)c3ccccc3S2(=O)=O)cc1` (stereo not drawn) was run?
A: 160 M⁻¹ s⁻¹

Q: `CC(C)C[C@H](NC(=O)OCc1ccccc1)C(=O)CN1C(=O)c2ccccc2C1=O` was tested. Which “K obs / 1” value [2] did it give?
A: Insoluble

Q: Which Ki (Neutrophil elastase) does the source give for `CC(C)C[C@H](N)C(=O)CN1C(=O)c2ccccc2C1=O` here?
A: 17.5 µM
